According to US20060276340A1, “HERBICIDE COMPOSITION COMPRISING PYRIBAMBENZ-PROPYL OR PYRIBAMBENZ-ISOPROPYL” (Zhejiang Chem-Tech Group Co., Ltd., priority 2003, published 2006):

Tests used:
Type in all cases: in vivo
Alopecurus aequalis [1] = assay: greenhouse pot test, Tables 1-2
Protocol: (§1) The test soil is a formulated sandy loam soil. 9.5 centimeter diameter pots are used for herbicidal activity test.
(§2) The soil in the pot for the pre-emergence test was sprayed one day after planting. The preparation liquid for the treatment prepared by mixing individual single-herbicides was diluted with water to the desired dosage.
(§3) The pots for post-emergence treatment are placed into a greenhouse and incubated for 7 to 9 days, and then subjected to leave treatment by spraying. The preparation liquid for the treatment prepared by mixing individual single-herbicides was diluted with water to the desired dosage.
(§4) The treated pots stood for one day, then were placed in a greenhouse and watered regularly. The herbicidal activities of the compositions were evaluated by visual examination after incubating for 14 to 21 days.
(§5) The herbicidal activities of the compositions were evaluated by plant symptoms such as stunting, deformity, chlorosis, and whitening. 0 represents that the compositions have no herbicidal effect or have safety to crops. 100 represents that the weeds or crops were completely killed.

Beckmannia syzigachne [2] = assay: greenhouse pot test, Tables 1-2; settings: BECSY 2 leaves
Protocol: as §1, §2, §3, §4, §5

Digitrria sanguinalis = assay: greenhouse pot test, Tables 1-2; settings: DIGSA 3 leaves
Protocol: as §1, §2, §3, §4, §5

Poa annua [3] = assay: greenhouse pot test, Tables 1-2; settings: POAAN 3 leaves
Protocol: as §1, §2, §3, §4, §5

Polypogon fugax [4] = assay: greenhouse pot test, Tables 1-2; settings: POLFU 3-4 leaves
Protocol: as §1, §2, §3, §4, §5

Beckmannia syzigachne [5] = assay: greenhouse pot test, post-emergence early stage treatment; settings: BECSY 2˜3 leaves
Protocol: as §1, §3, §4, §5

Cerastium arvense [6] = assay: as above
Protocol: as §1, §3, §4, §5

Galium aparine [7] = assay: as above
Protocol: as §1, §3, §4, §5

Poa annua [8] = assay: as above
Protocol: as §1, §3, §4, §5

weeds in rape field = assay: weed control in rape field, descriptive statements
Alopercurus japonicus [9] = assay: greenhouse pot test, post-emergence treatment; settings: ALOJA
Protocol: as §1, §3, §4, §5

Galium aparine [10] = assay: greenhouse pot test, post-emergence treatment
Protocol: as §1, §3, §4, §5

Poa annua [11] = assay: greenhouse pot test, post-emergence treatment; settings: POAAN
Protocol: as §1, §3, §4, §5

Veronica didyma = assay: greenhouse pot test, post-emergence treatment; settings: VERDI
Protocol: as §1, §3, §4, §5

Alopecurus aequalis [12] = assay: greenhouse pot test, pre-emergence treatment; settings: ALOAE
Protocol: as §1, §2, §4, §5

Cerastium arvense [13] = assay: greenhouse pot test, pre-emergence treatment; settings: CERAR
Protocol: as §1, §2, §4, §5

Galium aparine [14] = assay: greenhouse pot test, pre-emergence treatment; settings: GALAP
Protocol: as §1, §2, §4, §5

Polypogon fugax [15] = assay: greenhouse pot test, pre-emergence treatment; settings: POLFU
Protocol: as §1, §2, §4, §5

Alopecurus aequalis [16] = assay: greenhouse pot test, post-emergence treatment; settings: ALOAE 3 leaves
Protocol: as §1, §3, §4, §5

Cerastium arvense [17] = assay: greenhouse pot test, post-emergence treatment; settings: CERAR 6 leaves
Protocol: as §1, §3, §4, §5

Polypogon fugax [18] = assay: greenhouse pot test, post-emergence treatment; settings: POLFU 4˜4.5 leaves
Protocol: as §1, §3, §4, §5

Alopercurus japonicus [19] = assay: greenhouse pot test, post-emergence early stage treatment; settings: ALOJA
Protocol: as §1, §3, §4, §5

CCOC(=O)C(C)Oc1ccc(Oc2cnc3cc(Cl)ccc3n2)cc1 (stereo not drawn) [quizalofop-ethyl]
visual evaluation of weed effects (Alopecurus aequalis [1]; ALOAE 0 leaf, 6 g/ha): 85%
visual evaluation of weed effects (Alopecurus aequalis [1]; ALOAE 0 leaf, 9 g/ha): 85%
visual evaluation of weed effects (Alopecurus aequalis [1]; ALOAE 0 leaf, 12 g/ha): 85%
visual evaluation of weed effects (Alopecurus aequalis [1]; ALOAE 0 leaf, 15 g/ha): 85%
visual evaluation of weed effects (Alopecurus aequalis [1]; ALOAE 3 leaves, 6 g/ha): 98%
visual evaluation of weed effects (Alopecurus aequalis [1]; ALOAE 3 leaves, 9 g/ha): 100%
visual evaluation of weed effects (Alopecurus aequalis [1]; ALOAE 3 leaves, 12 g/ha): 100%
visual evaluation of weed effects (Alopecurus aequalis [1]; ALOAE 3 leaves, 15 g/ha): 100%
visual evaluation of weed effects (Beckmannia syzigachne [2]; 6 g/ha): 95%
visual evaluation of weed effects (Beckmannia syzigachne [2]; 9 g/ha): 95%
visual evaluation of weed effects (Beckmannia syzigachne [2]; 12 g/ha): 98%
visual evaluation of weed effects (Beckmannia syzigachne [2]; 15 g/ha): 98%
visual evaluation of weed effects (Digitrria sanguinalis; 6 g/ha): 100%
visual evaluation of weed effects (Digitrria sanguinalis; 9 g/ha): 100%
visual evaluation of weed effects (Digitrria sanguinalis; 12 g/ha): 100%
visual evaluation of weed effects (Digitrria sanguinalis; 15 g/ha): 100%
visual evaluation of weed effects (Poa annua [3]; 6 g/ha): 0%
visual evaluation of weed effects (Poa annua [3]; 9 g/ha): 10%
visual evaluation of weed effects (Poa annua [3]; 12 g/ha): 10%
visual evaluation of weed effects (Poa annua [3]; 15 g/ha): 10%
visual evaluation of weed effects (Polypogon fugax [4]; 6 g/ha): 30%
visual evaluation of weed effects (Polypogon fugax [4]; 9 g/ha): 100%
visual evaluation of weed effects (Polypogon fugax [4]; 12 g/ha): 100%
visual evaluation of weed effects (Polypogon fugax [4]; 15 g/ha): 100%
visual evaluation of weed effects (Beckmannia syzigachne [5]; quizalofop-ethyl 6 g/ha): 98%
visual evaluation of weed effects (Beckmannia syzigachne [5]; quizalofop-ethyl 9 g/ha): 100%
visual evaluation of weed effects (Beckmannia syzigachne [5]; quizalofop-ethyl 12 g/ha): 100%
visual evaluation of weed effects (Beckmannia syzigachne [5]; quizalofop-ethyl 15 g/ha): 100%
visual evaluation of weed effects (Cerastium arvense [6]; CERAR 3˜4 leaves, quizalofop-ethyl 6 g/ha): 0%
visual evaluation of weed effects (Cerastium arvense [6]; CERAR 3˜4 leaves, quizalofop-ethyl 9 g/ha): 0%
visual evaluation of weed effects (Cerastium arvense [6]; CERAR 3˜4 leaves, quizalofop-ethyl 12 g/ha): 0%
visual evaluation of weed effects (Cerastium arvense [6]; CERAR 3˜4 leaves, quizalofop-ethyl 15 g/ha): 0%
visual evaluation of weed effects (Galium aparine [7]; GALAP 7˜8 leaves, quizalofop-ethyl 6 g/ha): 0%
visual evaluation of weed effects (Galium aparine [7]; GALAP 7˜8 leaves, quizalofop-ethyl 9 g/ha): 0%
visual evaluation of weed effects (Galium aparine [7]; GALAP 7˜8 leaves, quizalofop-ethyl 12 g/ha): 0%
visual evaluation of weed effects (Galium aparine [7]; GALAP 7˜8 leaves, quizalofop-ethyl 15 g/ha): 0%
visual evaluation of weed effects (Poa annua [8]; POAAN 2˜3 leaves, quizalofop-ethyl 6 g/ha): 0%
visual evaluation of weed effects (Poa annua [8]; POAAN 2˜3 leaves, quizalofop-ethyl 9 g/ha): 0%
visual evaluation of weed effects (Poa annua [8]; POAAN 2˜3 leaves, quizalofop-ethyl 12 g/ha): 50%
visual evaluation of weed effects (Poa annua [8]; POAAN 2˜3 leaves, quizalofop-ethyl 15 g/ha): 60%
weed control (weeds in rape field; Poa annua): weak activity
weed control (weeds in rape field; most of grasses, even herbicide-resistant sclerochloa kengiana and Beckmannia syzigachne): excellent control

O=C(O)Cn1c(=O)sc2cccc(Cl)c21 [benazolin]
visual evaluation of weed effects (Alopercurus japonicus [9]; 75 g/ha): 0%
visual evaluation of weed effects (Alopercurus japonicus [9]; 150 g/ha): 0%
visual evaluation of weed effects (Alopercurus japonicus [9]; 225 g/ha): 0%
visual evaluation of weed effects (Alopercurus japonicus [9]; 300 g/ha): 0%
visual evaluation of weed effects (Galium aparine [10]; GALAP, 75 g/ha): 70%
visual evaluation of weed effects (Galium aparine [10]; GALAP, 150 g/ha): 90%
visual evaluation of weed effects (Galium aparine [10]; GALAP, 225 g/ha): 100%
visual evaluation of weed effects (Galium aparine [10]; GALAP, 300 g/ha): 100%
visual evaluation of weed effects (Poa annua [11]; 75 g/ha): 0%
visual evaluation of weed effects (Poa annua [11]; 150 g/ha): 0%
visual evaluation of weed effects (Poa annua [11]; 225 g/ha): 0%
visual evaluation of weed effects (Poa annua [11]; 300 g/ha): 0%
visual evaluation of weed effects (Veronica didyma; 75 g/ha): 60%
visual evaluation of weed effects (Veronica didyma; 150 g/ha): 90%
visual evaluation of weed effects (Veronica didyma; 225 g/ha): 98%
visual evaluation of weed effects (Veronica didyma; 300 g/ha): 100%

CCOc1nc(NC)nc(NC(=O)NS(=O)(=O)c2ccccc2C(=O)O)n1 [ethametsulfuron]
visual evaluation of weed effects (Alopecurus aequalis [12]; 6 g/ha): 80%
visual evaluation of weed effects (Alopecurus aequalis [12]; 7.5 g/ha): 90%
visual evaluation of weed effects (Alopecurus aequalis [12]; 9 g/ha): 95%
visual evaluation of weed effects (Cerastium arvense [13]; 6 g/ha): 85%
visual evaluation of weed effects (Cerastium arvense [13]; 7.5 g/ha): 90%
visual evaluation of weed effects (Cerastium arvense [13]; 9 g/ha): 95%
visual evaluation of weed effects (Galium aparine [14]; 6 g/ha): 10%
visual evaluation of weed effects (Galium aparine [14]; 7.5 g/ha): 40%
visual evaluation of weed effects (Galium aparine [14]; 9 g/ha): 70%
visual evaluation of weed effects (Polypogon fugax [15]; 6 g/ha): 60%
visual evaluation of weed effects (Polypogon fugax [15]; 7.5 g/ha): 70%
visual evaluation of weed effects (Polypogon fugax [15]; 9 g/ha): 75%
visual evaluation of weed effects (Alopecurus aequalis [16]; 6 g/ha): 90%
visual evaluation of weed effects (Alopecurus aequalis [16]; 7.5 g/ha): 90%
visual evaluation of weed effects (Alopecurus aequalis [16]; 9 g/ha): 90%
visual evaluation of weed effects (Cerastium arvense [17]; 6 g/ha): 90%
visual evaluation of weed effects (Cerastium arvense [17]; 7.5 g/ha): 90%
visual evaluation of weed effects (Cerastium arvense [17]; 9 g/ha): 90%
visual evaluation of weed effects (Galium aparine [10]; GALAP 7˜8 leaves, 6 g/ha): 85%
visual evaluation of weed effects (Galium aparine [10]; GALAP 7˜8 leaves, 7.5 g/ha): 90%
visual evaluation of weed effects (Galium aparine [10]; GALAP 7˜8 leaves, 9 g/ha): 90%
visual evaluation of weed effects (Polypogon fugax [18]; 6 g/ha): 60%
visual evaluation of weed effects (Polypogon fugax [18]; 7.5 g/ha): 60%
visual evaluation of weed effects (Polypogon fugax [18]; 9 g/ha): 70%
visual evaluation of weed effects (Beckmannia syzigachne [5]; ethametsulfuron 6 g/ha): 40%
visual evaluation of weed effects (Beckmannia syzigachne [5]; ethametsulfuron 9 g/ha): 40%
visual evaluation of weed effects (Cerastium arvense [6]; CERAR 3˜4 leaves, ethametsulfuron 6 g/ha): 90%
visual evaluation of weed effects (Cerastium arvense [6]; CERAR 3˜4 leaves, ethametsulfuron 9 g/ha): 90%
visual evaluation of weed effects (Galium aparine [7]; GALAP 7˜8 leaves, ethametsulfuron 6 g/ha): 90%
visual evaluation of weed effects (Galium aparine [7]; GALAP 7˜8 leaves, ethametsulfuron 9 g/ha): 90%
visual evaluation of weed effects (Poa annua [8]; POAAN 2˜3 leaves, ethametsulfuron 6 g/ha): 70%
visual evaluation of weed effects (Poa annua [8]; POAAN 2˜3 leaves, ethametsulfuron 9 g/ha): 80%
weed control (weeds in rape field; grass weeds): rather moderate control
weed control (weeds in rape field; most of broadleaf weeds): remarkable control

CCOCN(C(=O)CCl)c1c(C)cccc1CC [acetochlor]
visual evaluation of weed effects (Alopercurus japonicus [19]; 150 g/ha): 60%
visual evaluation of weed effects (Alopercurus japonicus [19]; 300 g/ha): 90%
visual evaluation of weed effects (Alopercurus japonicus [19]; 450 g/ha): 95%
visual evaluation of weed effects (Alopercurus japonicus [19]; 600 g/ha): 95%
visual evaluation of weed effects (Cerastium arvense [6]; CERAR, 150 g/ha): 70%
visual evaluation of weed effects (Cerastium arvense [6]; CERAR, 300 g/ha): 85%
visual evaluation of weed effects (Cerastium arvense [6]; CERAR, 450 g/ha): 85%
visual evaluation of weed effects (Cerastium arvense [6]; CERAR, 600 g/ha): 85%
visual evaluation of weed effects (Galium aparine [7]; GALAP, 150 g/ha): 40%
visual evaluation of weed effects (Galium aparine [7]; GALAP, 300 g/ha): 50%
visual evaluation of weed effects (Galium aparine [7]; GALAP, 450 g/ha): 60%
visual evaluation of weed effects (Galium aparine [7]; GALAP, 600 g/ha): 70%
visual evaluation of weed effects (Poa annua [8]; POAAN, 150 g/ha): 70%
visual evaluation of weed effects (Poa annua [8]; POAAN, 300 g/ha): 90%
visual evaluation of weed effects (Poa annua [8]; POAAN, 450 g/ha): 95%
visual evaluation of weed effects (Poa annua [8]; POAAN, 600 g/ha): 95%
